This note sets out measurements from patent US11654178B2, “Cyclic prosaposin peptides and uses thereof” (CHILDREN'S MEDICAL CENTER CORPORATION, priority 2014, dated 2023).

The nature of data set [1]: Activity of cyclic versus linear peptide (FIG. 18).
Data set [2] relates to patient-derived ovarian cancer cells expressing luciferase. Kind of data set: Mouse model of ovarian cancer, luciferase tumor burden and histology. Format: in vivo, mice. The conditions noted are these: 10 mg/kg for 10 days. As to the method:
Next the cyclic peptide DWLPK (SEQ ID NO: 1) was tested in a mouse model of ovarian cancer. For the ovarian cancer mouse model, 1 million patient-derived ovarian cancer cells expressing luciferase were injected intraperitoneally into mice. The tumor burden was measured in vivo using luciferase. Treatment with the cyclic peptide began after 40 days and was administered for 10 days at 10 mg/kg. After 10 days of treatment, the mice were euthanized and the tumor was analyzed histologically.

Data set [3] concerns pancreatic cancer. Kind of data set: Anti-tumor activity against pancreatic cancer (FIGS. 19 and 20). Format: in vivo.
Data set [4] deals with Tsp-1. Briefly: Tsp-1 stimulation in macrophages in mice. Format: in vivo. The conditions noted are these: FIG. 7, F4/80 macrophages.
Data set [5] concerns DSS-induced model of Crohn's Disease. Kind of data set: Dextran Sodium Sulfate (DSS)-induced model of Crohn's Disease. Format: in vivo, mice. As to the method:
A model of Crohn's disease was used to test the efficacy of the cyclic peptide DWLPK (SEQ ID NO: 1) for treating Crohn's disease. The cyclic peptide was tested in a Dextran Sodium Sulfate (DSS)-induced model of Crohn's Disease where DSS was given to the mice in their drinking water (3.5% weight:volume) for 7 days. In one group the mice were treated concurrently with the cyclic peptide and DSS, while the other group was treated with DSS alone.

The test system of data set [6] is thrombospondin-1 (Tsp-1) in WI-38 lung fibroblasts. Kind of data set: Stimulation of Tsp-1 in WI-38 lung fibroblasts (western blot). Format: cell-based. From the text:
Identification of both a 4- and 5-amino acid peptide derived from the saposin A domain of Psap that was able to inhibit both a tail vein model of Lewis Lung Carcinoma metastasis and in an adjuvant model of breast cancer metastasis when administered systemically was previously described (3). The therapeutic efficacy of peptides is often limited by their stability, or resistance to degradation by proteases. […] The stability of the 4-amino acid Psap peptide by incorporating d-amino acids at different moieties was investigated. Two peptides with d-amino acids incorporated, in combination, at the first (aspartate) and third (leucine) or the second (tryptophan) and fourth (proline) residues were synthesized. The activity of these peptides along with the native 1-amino acid peptide in vitro by measuring their ability to stimulate thrombospondin-1 (Tsp-1) in WI-38 lung fibroblasts was tested.
While the results of the peptide treatment of the PDX model of ovarian cancer were very promising it was postulated that the stability and activity of the peptide could be increased even more. The peptide derived from Psap was located in a region of the protein that contained a 13-amino acid loop between two helices that was stabilized by a disulfide bond (3). As such a 5-amino acid peptide that was cyclized via backbone (N—C) cyclization was synthesized (FIG. 14A, cyclic DWLPK (SEQ ID NO: 1)). […]

Data set [7] deals with thrombospondin-1 (Tsp-1). Kind of data set: Tsp-1 activation in cultured cells by Western blot. Format: cell-based. The note with it: cyclic peptides, 4 micrograms/mL or 10 micrograms/mL, Western blot, FIG. 2. On the procedure: Cells were cultured and contacted with 4 micrograms/mL or 10 micrograms/mL of each peptide and the level of thrombospondin-1 (Tsp-1) activation was measured by Western blot. Tsp-1 has been previously shown to be activated by Saposin A protein.
On the technique in general: In western blotting, separated proteins are transferred to a membrane and probed.

Data set [8] concerns DF14 cells. Kind of data set: DF14 PDX model of metastatic ovarian cancer, cyclic peptide for 10 days. Format: in vivo, mice. On the procedure: Based on these findings the efficacy of the cyclic peptide using the DF14 model was tested. In order to better study the effects of the peptide on the metastatic lesions mice were injected with 1×10^7 cells and allowed the luciferase signal to reach 9×10^9 RLU. The mice were treated with the cyclic peptide for only 10 days to ensure that there would be sufficient tumor tissue to analyze. […] The liver, spleen and omentum were analyzed of both the peptide and control treated mice by H&E, and IHC for Tsp-1, Gil and TUNEL. The metastatic lesions in the control treated mice were, on average, 2.3-fold larger than those in the peptide treated mice (FIG. 14E). […] Moreover, all of the lesions in the peptide treated mice contained a significant percentage of TUNEL positive cells, with an average of 40% TUNEL positive cells/lesion (FIGS. 14H and 14I). Conversely, control treated tumors contained, on average, only 1.4% TUNEL positive cells/lesion (FIGS. 14H and 14I).

For data set [9] the following is noted: mouse, in vivo.
Data set [10] in a line: Stability in human plasma at 37° C., read out as Tsp-1 stimulation in WI-38 fibroblasts (ELISA). The class given is in vitro ADME. The conditions noted are these: 24 hours. As to the method:
The cyclic peptide DWLPK (SEQ ID NO: 1) was also tested for stability in human plasma compared to the linear peptide dWIP (SEQ ID NO: 5). Each peptide was incubated in human plasma at 37 degrees Celsius, for 2, 4, 8, or 24 hours.
Cyclization also has the effect of increasing the stability of peptides by forcing them into a conformation that is not recognized by most naturally occurring proteases (9, 10, 14-18). The stability of the cyclic peptide to the linear d-amino acid peptide in human plasma was compared.
(In an ELISA, binding on a coated surface is turned into a signal by an enzyme label.)

Where a SMILES comes first, the peptide text is derived from it.

In the case of `CC(C)C[C@@H]1NC(=O)[C@H](Cc2c[nH]c3ccccc23)NC(=O)[C@H](CC(=O)O)NC(=O)[C@H](CCCCN)NC(=O)[C@@H]2CCCN2C1=O` [cyclic DWLPK] (cyclo(DWLPK)), in [1], the “activity relative to the linear peptide” value is on record as “approximately 2 fold”. The “size of treated tumors relative to untreated tumors by histology” value in data set [2] is reported as below 25%. For the same compound, in [2] (histology), the “Tsp-1 expression in treated tumors” value was “expressed Tsp-1”. The “luciferase output (tumor burden)” value in [2] (starting after 40 days, FIG. 6) is “went down”. Also, the “anti-tumor activity against pancreatic cancer” value in data set [3] (FIG. 19) is “significant anti-tumor activity”. Also, in [3] (FIG. 20), the “effect on metastasis of pancreatic cancer” value was “inhibits metastasis” and the “effect on metastatic pancreatic cancer” value was “regresses metastatic pancreatic cancer”. For the same compound, the “Tsp-1 in macrophages in mice” value in [4] is “stimulated Tsp-1 in macrophages”. Besides, the “inflammation (MPO enzymatic activity)” value in data set [5] (DSS 3.5% in drinking water 7 days, peptide concurrently, FIG. 9) is “significantly reduced inflammation”. Further, the “body weight loss versus DSS only” value in data set [5] (FIG. 10) was “lost less weight”. For the same compound, in [5] (FIG. 11), the “Tsp-1 stimulation in intestine” value was “stimulate Tsp-1” and the macrophage infiltration entry is recorded as “inhibit macrophage infiltration”. Besides, the “Tsp-1 stimulation in vitro relative to d-amino acid linear peptide” value in data set [6] is 3 fold. The “effectiveness at increasing the level of Tsp-1” value in data set [7] was “most effective”. In data set [8] (10 days of treatment, on average), the “size of metastatic lesions in control treated mice relative to peptide treated mice” value is given as 2.3 fold. For the same compound, the “TUNEL positive cells/lesion, average” value in data set [8] (10 days of treatment, control 1.4%) is listed as 40%. In [8] (after 10 days of treatment, start at 9×10^9 RLU, 10 mg/kg QD), the “average luciferase signal after treatment” value is 4×10^8 RLU. Also, in data set [8] (all of the peptide treated tumors), the “Tsp-1 staining of treated tumors (IHC)” value is “stained positive for Tsp-1”. Further, the “toxicity to the liver or spleen by histology” value in data set [9] was “did not cause any toxicity”. For the same compound, in data set [10] (37 degrees Celsius, FIG. 3), the “ability to activate Tsp-1 after incubation in human plasma” value is “retained the ability to activate Tsp-1”. Moreover, the “Tsp-1 stimulating activity retained after incubation in human plasma” value in data set [10] (37° C., ELISA) is “greater than 70%”.
